Measured values as given in patent US20040143014A1, “Therapeutic use of alpha-2-delta ligands” (Pfizer Inc, priority 2002, published 2004).
Entries after “also recorded” stand apart in the source; their conditions may differ.

Columns and labels:
[1] = system: citric acid-induced cough; assay: Citric acid-induced cough in guinea pigs; conditions: for inhibition of the cough response to citric acid inhalation: aerosolized 1 mM inhaled for 10 min prior to citric acid 0.25 M; for motor activity (behavioral effect, not quantified): guinea pigs, 1 mM aerosolized for 10 min
Protocol: After the period of acclimatisation to laboratory conditions, animals were individually placed in a transparent perspex box (20×10×10 cm, Vetrotecnica, Italy) ventilated with a constant airflow of 400 ml/min. The tussive agents (citric acid 0.25 M) was nebulised via a mini-ultrasonic nebuliser (Ugo Basile, Italy). […] The appearance of cough was detected by means of a tie-clip microphone (Sony, Japan) and confirmed by the characteristic posture of the animal. The cough sounds were recorded and digitally stored. The number of elicited cough efforts was subsequently counted by a blind observer.
All experiments were carried out at the same time of day. To elicit cough, guinea pigs were exposed to aerosols of citric acid for 10 min.
(§1) Values were presented as mean±standard error of the mean (SEM). Comparisons between groups were made by one way analysis of variance (ANOVA) and the Dunnett's test for multiple comparisons. A p value of <0.05 was considered significant.

human small bronchi [2] = assay: Human bronchi contraction produced by electric field stimulation (EFS), organ bath; conditions: 0.1 mM and 1 mM; EFS 30 Hz, 0.5 ms, 10 sec, 70V; with L-NAME, indomethacin, propranolol
From the text: In a separate set of experiments, human bronchi were electrically stimulated (30 Hz, 0.5 ms pulse width, duration 10 sec, 70V).

human small bronchi [3] = assay: Human bronchi contraction induced by acetylcholine, organ bath; conditions: 0.1 mM and 1 mM, 15 min before the stimulus; ACh 100 nM-10 mM
Protocol: The human samples were taken from 10 different patients who were undergoing lung resection for a solitary peripheral carcinoma. […] The bronchial rings (from 3 to 11 from each sample) were taken from the lobar or segmental bronchus of the lobe obtained at surgery, away from the tumor site.
Tissues were fixed to the base of the organ bath and connected to an isometric force transducer. […] During the initial stabilization period (90 min) tissues were washed six times. A challenge with acetyl choline (Ach) (1 mM) was performed and after washing, the tissue was allowed to equilibrate for an additional 90 min. To prevent peptide degradation phosphoramidon (1 μM) was added to the bath. Viability of the tissues was tested with the response to ACh (1 mM).
Experiments in human bronchi were performed in the presence of L-NAME (100 μM) to block the production of nitric oxide, indomethacin (5 μM) to block the production of prostanoids and propranolol (1 μM) to block β-adrenoceptors.
as §1

rat spinal tissues = conditions: only after inflammation or activation of protein kinase C; Pain 2003, 105, 133-141; cited from earlier work
[4] = system: citric acid induced cough; conditions: guinea pigs; Lalloo et al., Trevisani et al.; cited from earlier work

SMILES	inhibition of the cough response to citric acid inhalation [1]	motor activity (behavioral effect, not quantified) [1]	effect on the contractile response produced by EFS (human small bronchi [2])	inhibition of the contraction caused by acetylcholine (human small bronchi [3])	release of substance P and CGRP (rat spinal tissues)	effect on citric acid induced cough [4]
NCC1(CC(=O)O)CCCCC1 [gabapentin, 1-(aminomethyl)-cyclohexylacetic acid]	significant inhibition	some degree of reduction in motor activity	significant (p<0.05) inhibitory effect	did not produce any significant inhibition; also recorded: Absence of effect	reduce release of substance P and CGRP	
CC(C)C[C@H](CN)CC(=O)O [pregabalin, (S)-(+)-4-amino-3-(2-methylpropyl)butanoic acid]					reduce release of substance P and CGRP	
NC[C@]1(CC(=O)O)C[C@H]2CC[C@H]2C1 [Compound A, (1α, 3α,5α)(3-amino-methyl-bicyclo[3.2.0]hept-3-yl)-acetic acid]	significant inhibition	some degree of reduction in motor activity	significant (p<0.05) inhibitory effect	did not produce any significant inhibition; also recorded: Absence of effect		
Oc1cc2c(cc1O)CN(C(=S)NCCc1ccc(Cl)cc1)CCC2 [capsazepine]						inhibited this response
C=C(C)[C@]12C[C@@H](C)[C@@]34O[C@](Cc5ccccc5)(O[C@@H]1[C@@H]3C=C(COC(=O)Cc1cc(I)c(O)c(OC)c1)C[C@]1(O)C(=O)C(C)=C[C@@H]41)O2 [iodo-resiniferatoxin]						inhibited this response
